pIC50: −log10 of the molar value. Square brackets hold non-standard residues; d marks the D form. Peptide text beside a SMILES is read from it. * marks the point of attachment. Dolaproine = CO[C@@H]([C@@H]1CCCN1)[C@@H](C)C(=O)O; Dil = CC[C@H](C)[C@H](NC)[C@@H](CC(=O)O)OC; X1 = C[C@@H](N*)[C@@H](O)c1ccccc1; NMeV = CN[C@H](C(=O)O)C(C)C
What was measured:
[1] = system: lung cancer cell line (A549); assay: Cell viability assay (CellTiter-Glo), A549; assay type: cell-based; details: for pIC50: A549 cells, 3 days incubation, CellTiter-Glo luminescence, 50% of untreated control
Method: (§1) FaDu or A549 cell lines were seeded into 96-well plates at a density of 3,000 cells per well and incubated at 37° C., 5% CO2. After 24 hours, 100 μL of drug at 9 concentrations (from 1000 nM, serially diluted 1/5) was added to the cell line. As the drugs, the compound of Chemical Formula 2 prepared according to Example 1, SC209 (MedChemExpress), and MMAE were treated, and at this time, a control group (drug concentration 0) without drug treatment was also prepared. After incubation under incubator conditions (37° C., 5% CO2) for 3 days, 100 µL of
(§2) CellTiter-Glo reagent (using CellTiter-Glo® Luminescent Cell Viability Assay kit (Promega, G7571)) was added to each well of the plate, followed by pipetting. After incubation for 10 minutes (RT), luminescence was measured, and when the luminescence value at drug concentration 0 is regarded as 100%, the concentration showing 50% luminescence value is the IC50 value.

[2] = system: head and neck squamous cell carcinoma cell line (FaDu); assay: Cell viability assay (CellTiter-Glo), FaDu; assay type: cell-based; details: for pIC50: FaDu cells, 3 days incubation, CellTiter-Glo luminescence, 50% of untreated control
Method: as §1, §2

## CC[C@H](C)[C@@H]([C@@H](CC(=O)N1CCC[C@H]1[C@H](OC)[C@@H](C)C(=O)N[C@H](C)[C@@H](O)c1ccccc1)OC)N(C)C(=O)[C@@H](NC(=O)[C@@H](NC)C(C)C)C(C)C [MMAE, reference compound] (H-[NMeV]V[Dil][Dolaproine]-X1)
[1]
  pIC50: 8.43
[2]
  pIC50: 8.80

## CN[C@H](C(=O)N[C@H](C(=O)N(C)[C@H](/C=C(\C)C(=O)O)C(C)C)C(C)(C)C)C(C)(C)c1ccc(OC)c(N)c1 [Compound of Chemical Formula 2]
[1]; Homo sapiens, 72 h
  pIC50: 7.65
[1]; lung cancer cell line (printed A529), 3 days treatment
  cell viability compared with SC209 and MMAE: decreased to a level similar to that observed with SC209 and MMAE treatment
[2]; FaDu cell line, 3 days treatment
  cell viability compared with SC209 and MMAE: decreased to a level similar to that observed with SC209 and MMAE treatment
[2]; Homo sapiens, 72 h
  pIC50: 8.21

Reference: patent US20260263616A1, “NOVEL HE[…] USE THEREOF” (PINOTBIO, INC., priority 2023, published 2026)
